Source: ChEMBL document CHEMBL5728348, “1 H-pyrazol-1-yl-thiazoles as inhibitors of lactate dehydrogenase and methods of use thereof” (2021)

Assay: Biochemical Assay: Test compounds were placed in a Greiner Bio-One (Monroe, N.C.) 1536-well black solid bottom assay plate. 200 millimolar (mM) Tris HCl, pH 7.4, 100 micromolar (μM) EDTA and 0.01% TWEEN-20, final concentration, was used as the assay buffer. The LDHA reagent was 2 nanomolar (nM) Human LDHA (Meridian Life Science, Inc., Memphis, Tenn.), final concentration, in assay buffer. The substrate reagent was 0.06 mM NADH and 0.2 mM sodium pyruvate, final concentration, in assay buffer. The resazurin/diaphorase coupling reagent was 0.037 mM resazurin and 0.133 milligrams per milliliter (mg/mL) diaphorase, final concentration, in assay buffer. The inhibition of LDHA activity was measured by fluorescence emission.

Row | SMILES | IC50
1 | N[S+](=O)([O-])c1ccc(Cc2c(-c3cccc(-c4ccc(C(F)(F)C(F)(F)F)cc4)c3)nn(-c3nc(C(=O)O)cs3)c2CCC2CC2)cc1F | in the range around 550 nM
2 | Cc1ccc(C#Cc2cccc(-c3nn(-c4nc(C(=O)NC#N)cs4)c(CC4CC4)c3Cc3ccc([SH+](N)[O-])c(F)c3)c2)s1 (stereo not given) | in the range around 29000 nM
3 | N[SH+]([O-])c1ccc(Cc2c(-c3cccc(-c4cc(F)cc(F)c4)c3)nn(-c3nc(C(=O)O)cs3)c2CC2CC2)cc1F (stereo not given) | < 100 nM
4 | NS(=O)(=O)c1ccc(Cc2c(-c3cccc(-c4nc5ccccc5[nH]4)c3)nn(-c3nc(C(=O)O)cs3)c2CC2CC2)cc1F | < 100 nM
5 | CC(C)c1ccc(-c2cccc(-c3nn(-c4nc(C(=O)O)cs4)c(CCC4CC4)c3Cc3ccc([S+](N)(=O)[O-])c(F)c3)c2)cc1 | in the range around 550 nM
6 | Cc1ccc(C#Cc2cc(-c3nn(-c4nc(C(=O)O)cs4)c(CC4CC4)c3Cc3ccc([SH+](N)[O-])c(F)c3)ccc2F)s1 (stereo not given) | < 100 nM
7 | CC(C)Cc1ccc(-c2cccc(-c3nn(-c4nc(C(=O)O)cs4)c(CCC4CC4)c3Cc3ccc([S+](N)(=O)[O-])c(F)c3)c2)cc1 | in the range around 550 nM
8 | CN(C)c1ccc(-c2cccc(-c3nn(-c4nc(C(=O)O)cs4)c(CC4CC4)c3Cc3ccc([SH+](N)[O-])c(F)c3)c2)cc1 (stereo not given) | < 100 nM
9 | Cc1ccc(C#Cc2cccc(-c3nn(-c4nc(CO)cs4)c(CC4CC4)c3Cc3ccc([SH+](N)[O-])c(F)c3)c2)s1 (stereo not given) | > 57000 nM
10 | N#Cc1ccc(-c2cccc(-c3nn(-c4nc(C(=O)O)cs4)c(CC4CC4)c3Cc3ccc([SH+](N)[O-])c(F)c3)c2)cc1 (stereo not given) | < 100 nM
